In article PMC7178883, “1,2,4-Triazole-based anticonvulsant agents with additional ROS scavenging activity are effective in a model of pharmacoresistant epilepsy” (Journal of Enzyme Inhibition and Medicinal Chemistry, 2020):
Values after ≈ are worked out from the molar mass of the structure shown. Where two headings read alike, the source gives them in different places. Blank lines part the entries; values can stand above or below the compound they belong to.

What was measured:
DPPH assay = settings: methanol, 30 min, 517 nm
Description: Free radical scavenging activity of compounds TP-10, TP-315 and TP-427 was evaluated using DPPH assay. Briefly, 25 µl of 0.2 mM of methanolic solution of DPPH ([…]) was mixed with 175 µl of varying concentrations (0.002–4.5 mg/ml) of the studied compounds dissolved in methanol. Reaction mixtures in the 96-well plate were incubated in the dark at room temperature for 30 min. The absorbance was measured at 517 nm against blank (which consists of all reagents without the investigated compounds) using a microplate reader (Epoch, BioTek Instruments, Inc., Winooski, VT, USA). As a reference, the antioxidant activity of vitamin C was evaluated. Each concentration of the compounds was assayed at least six times. The results were expressed as the IC50 (µg/ml) ± SD calculated using the linear regression analysis.

CUPRAC assay = settings: pH 7.0, 450 nm
Description: Cupric reducing antioxidant capacity (CUPRAC) assay was performed according to the method by Apak et al.[20] with slight modifications. The CUPRAC reagent was prepared by mixing equal volume of CuCl2 (10 mM), neocuproine solution (7.5 mM), and acetate buffer (pH = 7.0). Subsequently, 50 µl of TP-10, TP-315, TP-427 (0.002–0.4 mg/ml) and 150 µl of CUPRAC reagent were pipetted into each well of 96-well plate (Nunc, Roskilde, Denmark). After pipetting, the plate was shaken for 5 min and then incubated for 25 min in the dark at room temperature. The absorbance of the solutions was read at 450 nm using a microplate reader (Epoch, BioTek Instruments, Inc., Winooski, VT, USA). At least six tests were performed for each concentration of the investigated compounds. The results were expressed as the IC50 (µg/ml) ± SD.

[1] = design: method as in Barton et al. 25; settings: ref Barton et al. 25, cited from earlier work
[2] = system: 6 Hz-induced psychomotor seizures; design: method as in Barton et al. 25; settings: pretreatment time 15 min, ref Barton et al. 25, cited from earlier work

IC50 ± SD, DPPH (DPPH assay): 7.82 ± 0.54 µg/mL (≈ 44.4 µM)
IC50 ± SD, CUPRAC (CUPRAC assay): 16.05 ± 0.48 µg/mL (≈ 91.1 µM)
Structure (SMILES): O=C1O[C@H]([C@@H](O)CO)C(O)=C1O [Ascorbic acid, reference compound]

Structure (SMILES): CC[C@@H](C(N)=O)N1CCCC1=O [Levetiracetam]
TD50 ([1]; pretreatment time 60 min): >500 mg/kg

Structure (SMILES): CCCC(CCC)C(=O)O [Valproate, valproic acid]
TD50 ([1]; pretreatment time 15 min): 363.3 mg/kg
ED50 ([2]; mouse 6 Hz test): 130.6 mg/kg
Protective index (TD50/ED50) [2]: 2.8
